Data set [1] addresses Voltage-gated inwardly rectifying potassium channel KCNH2 (Homo sapiens, UniProt Q12809). In words: Inhibition of human ERG expressed in CHO cells. Format: toxicity, cell-based.
In data set [2] the target is hERG (KCNH2) (Homo sapiens, UniProt Q12809). In words: Inhibition of human ERG expressed in CHO cells at 40 uM relative to control. It is filed as toxicity, cell-based. The settings on record: CHO cells that express human ERG.
The target of data set [3] is NACHT, LRR and PYD domains-containing protein 3 (Mus musculus) (UniProt Q8R4B8). In words: Inhibition of NLRP3 inflammasome activation in LPS/ATP-induced C57BL/6 mouse BMDMs assessed as reduction in IL-1beta secretion at 100 nM preincubated with LPS for 4 hrs followed by compound addition for 30 mins and further stimulated with ATP for 30 mins by ELISA relative to control. The settings on record: BMDM, time 1.0 hrs. Format: cell-based. For orientation: An ELISA detects its analyte on a solid surface through an enzyme-linked reagent.

Data set [4] can be described thus: Oral bioavailability in ICR mouse at 10 mg/kg measured upto 24 hrs by LC-MS/MS method. Format: ADME, organism-based. The settings on record: ICR, in vivo.
The nature of data set [5]: Cmax in ICR mouse at 10 mg/kg, po measured upto 24 hrs by LC-MS/MS method. The settings on record: in vivo. Format: ADME, organism-based.
Data set [6] can be described thus: Half-life in ICR mouse at 10 mg/kg, po measured upto 24 hrs by LC-MS/MS method. The settings on record: in vivo. It is filed as ADME, organism-based.
Data set [7] can be described thus: AUC in ICR mouse at 1 mg/kg, iv measured upto 24 hrs by LC-MS/MS method. It is filed as ADME, organism-based. The settings on record: ICR, in vivo.
Data set [8] addresses T1, NACHT, LRR and PYD domains-containing protein 3 (Mus musculus, UniProt Q8R4B8). The experiment in a line: Inhibition of NLRP3 inflammasome activation in LPS/ATP-induced C57BL/6 mouse BMDMs assessed as reduction in IL-1beta secretion preincubated with LPS for 4 hrs followed by compound addition for 30 mins and further stimulated with ATP for 30 mins by ELISA. It is filed as cell-based, BMDM.

Data set [9] in a line: Stability in rat plasma assessed as half life measured upto 8 hrs. Format: ADME, cell-free.
Data set [10] in a line: Half-life in ICR mouse at 1 mg/kg, iv measured upto 24 hrs by LC-MS/MS method. The settings on record: in vivo. Format: ADME, organism-based.
Data set [11] can be described thus: Stability in rat liver microsomes assessed as half life preincubated for 5 mins with NADPH followed by compound addition and measured upto 120 mins by LC-MS/MS analysis. It is filed as ADME, Microsome. The settings on record: time < 125 min. (Liver microsomes are a subcellular fraction often used to study metabolism.)
Data set [12] is described as follows: Stability in human liver microsomes assessed as half life preincubated for 5 mins with NADPH followed by compound addition and measured upto 120 mins by LC-MS/MS analysis. It is filed as ADME, Microsome. The settings on record: time < 125 min.
Data set [13] has as its target NACHT, LRR and PYD domains-containing protein 3 (Mus musculus) (UniProt Q8R4B8). The experiment in a line: Inhibition of NLRP3 inflammasome activation in LPS/ATP-induced C57BL/6 mouse BMDMs assessed as reduction in IL-1beta secretion at 200 nM preincubated with LPS for 4 hrs followed by compound addition for 30 mins and further stimulated with ATP for 30 mins by ELISA relative to control. Format: cell-based. The settings on record: BMDM, time 1.0 hrs.

A short description of data set [14]: Stability in mouse plasma assessed as half life measured upto 8 hrs. It is filed as ADME, cell-free.
Data set [15] in a line: Stability in human plasma assessed as half life measured upto 8 hrs. It is filed as ADME, cell-free.
Data set [16] addresses NACHT, LRR and PYD domains-containing protein 3 (Mus musculus) (UniProt Q8R4B8). The experiment in a line: Inhibition of NLRP3 inflammasome activation in LPS/ATP-induced C57BL/6 mouse BMDMs assessed as reduction in IL-1beta secretion at 500 nM preincubated with LPS for 4 hrs followed by compound addition for 30 mins and further stimulated with ATP for 30 mins by ELISA relative to control. It is filed as cell-based. The settings on record: BMDM, time 1.0 hrs.

Data set [17] is described as follows: AUC in ICR mouse at 10 mg/kg, po measured upto 24 hrs by LC-MS/MS method. The settings on record: ICR, in vivo. It is filed as ADME, organism-based.
Data set [18] is described as follows: Stability in mouse liver microsomes assessed as half life preincubated for 5 mins with NADPH followed by compound addition and measured upto 120 mins by LC-MS/MS analysis. The settings on record: time < 125 min. It is filed as ADME, Microsome.
Data set [19] is described as follows: Clearance in ICR mouse at 1 mg/kg, iv measured upto 24 hrs by LC-MS/MS method. It is filed as ADME, organism-based. The settings on record: in vivo.
The target of data set [20] is NACHT, LRR and PYD domains-containing protein 3 (Mus musculus) (UniProt Q8R4B8). The settings on record: BMDM, dose 10.0 nM, time 1.0 hrs.
For data set [21], the system named is Mus musculus. The experiment in a line: Antiinflammatory activity in MSU-induced C57BL/6 mouse model of arthritis assessed as reduction in inflammatory cell infiltration at 12.5 mg/kg, iv measured after 24 hrs. It is filed as functional, organism-based.
Data set [22] is described as follows: Selectivity index, ratio of CC50 for cytotoxicity against C57BL/6 mouse BMDMs to IC50 for inhibition of NLRP3 inflammasome activation in C57BL/6 mouse BMDMs. It is filed as toxicity. The settings on record: bone marrow-derived macrophages (BMDMs), read-out: Ratio CC50/IC50.
For data set [23], the target named is T1, NACHT, LRR and PYD domains-containing protein 3. In words: Inhibition of NLRP3 inflammasome activation in mouse J774.A1 cells. Format: cell-based.

The source made the active and inactive calls. The calls are words filed in the database; no cut-off is given here.

NACHT, LRR and PYD domains-containing protein 3 (Mus musculus), sequence (Q8R4B8 whole entry, the tested form may be a part): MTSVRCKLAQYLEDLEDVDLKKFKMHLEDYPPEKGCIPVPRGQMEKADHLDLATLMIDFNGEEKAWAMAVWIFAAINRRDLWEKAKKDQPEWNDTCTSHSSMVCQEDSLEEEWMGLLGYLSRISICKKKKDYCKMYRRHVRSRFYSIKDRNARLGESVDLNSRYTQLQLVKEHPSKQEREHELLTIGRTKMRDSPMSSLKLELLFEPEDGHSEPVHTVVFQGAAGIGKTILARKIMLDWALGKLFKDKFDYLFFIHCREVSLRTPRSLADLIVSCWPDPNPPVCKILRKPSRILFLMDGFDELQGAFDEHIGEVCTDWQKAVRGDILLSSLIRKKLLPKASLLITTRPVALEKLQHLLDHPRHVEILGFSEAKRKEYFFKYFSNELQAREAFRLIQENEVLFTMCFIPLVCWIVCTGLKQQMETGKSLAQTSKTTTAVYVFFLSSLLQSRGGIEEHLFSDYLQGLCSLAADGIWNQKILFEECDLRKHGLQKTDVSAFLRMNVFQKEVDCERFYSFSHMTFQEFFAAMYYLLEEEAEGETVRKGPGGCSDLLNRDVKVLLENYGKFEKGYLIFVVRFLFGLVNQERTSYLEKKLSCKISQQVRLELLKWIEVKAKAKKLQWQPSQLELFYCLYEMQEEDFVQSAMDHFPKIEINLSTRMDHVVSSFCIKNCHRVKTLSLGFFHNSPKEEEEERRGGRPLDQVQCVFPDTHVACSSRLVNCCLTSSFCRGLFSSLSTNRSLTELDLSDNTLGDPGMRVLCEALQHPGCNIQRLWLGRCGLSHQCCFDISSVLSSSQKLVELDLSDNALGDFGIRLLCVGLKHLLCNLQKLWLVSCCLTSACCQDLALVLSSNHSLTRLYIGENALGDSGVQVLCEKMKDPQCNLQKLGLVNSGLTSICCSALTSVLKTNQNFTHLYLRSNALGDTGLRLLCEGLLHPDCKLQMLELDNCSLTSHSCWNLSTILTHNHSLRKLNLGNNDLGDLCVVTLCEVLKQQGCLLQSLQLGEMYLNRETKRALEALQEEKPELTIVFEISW
T1 sequence (Q8R4B8 whole entry, the tested form may be a part): as above
hERG (KCNH2), sequence (Q12809 whole entry, the tested form may be a part): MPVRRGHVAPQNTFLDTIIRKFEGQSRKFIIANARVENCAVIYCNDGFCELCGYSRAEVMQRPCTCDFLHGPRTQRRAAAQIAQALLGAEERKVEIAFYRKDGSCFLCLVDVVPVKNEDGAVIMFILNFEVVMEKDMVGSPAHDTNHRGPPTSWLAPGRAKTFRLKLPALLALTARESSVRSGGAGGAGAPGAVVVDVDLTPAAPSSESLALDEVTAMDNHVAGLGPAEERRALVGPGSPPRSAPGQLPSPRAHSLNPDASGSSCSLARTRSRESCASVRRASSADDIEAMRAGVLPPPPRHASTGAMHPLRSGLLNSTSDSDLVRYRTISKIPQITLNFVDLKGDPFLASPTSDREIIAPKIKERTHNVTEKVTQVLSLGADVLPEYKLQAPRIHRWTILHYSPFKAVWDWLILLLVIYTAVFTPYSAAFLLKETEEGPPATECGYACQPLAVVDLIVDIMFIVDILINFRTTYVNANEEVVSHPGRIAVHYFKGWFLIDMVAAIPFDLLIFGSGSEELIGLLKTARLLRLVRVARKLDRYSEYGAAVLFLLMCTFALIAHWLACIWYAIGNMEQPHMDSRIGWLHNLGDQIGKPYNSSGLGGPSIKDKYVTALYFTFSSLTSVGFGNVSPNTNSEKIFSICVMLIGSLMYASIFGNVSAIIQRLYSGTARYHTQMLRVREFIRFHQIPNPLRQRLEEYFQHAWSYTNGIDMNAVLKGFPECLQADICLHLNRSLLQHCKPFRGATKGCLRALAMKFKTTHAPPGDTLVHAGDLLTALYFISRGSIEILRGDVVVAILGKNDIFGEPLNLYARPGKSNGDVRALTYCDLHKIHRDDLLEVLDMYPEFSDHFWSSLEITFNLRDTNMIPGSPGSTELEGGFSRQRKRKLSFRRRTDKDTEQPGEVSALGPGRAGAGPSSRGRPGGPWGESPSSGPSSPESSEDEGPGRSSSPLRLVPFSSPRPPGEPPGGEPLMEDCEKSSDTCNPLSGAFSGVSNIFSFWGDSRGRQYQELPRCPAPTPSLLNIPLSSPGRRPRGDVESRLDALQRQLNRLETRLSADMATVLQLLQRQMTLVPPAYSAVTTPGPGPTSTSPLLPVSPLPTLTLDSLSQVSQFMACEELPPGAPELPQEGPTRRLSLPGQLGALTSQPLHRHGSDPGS
Voltage-gated inwardly rectifying potassium channel KCNH2, sequence (Q12809 whole entry): as the sequence (Q12809 whole entry, the tested form may be a part) above

For `C=C1C(=O)[C@]23[C@H](O)[C@H]1CC[C@H]2[C@]12C=CCC(C)(C)[C@H]1[C@H](O)[C@@]3(OCc1cncs1)OC2`, the IC50 (commonly the midpoint of a concentration-inhibition curve) in [1] is greater than 40000 nM; in [8], 50.2 nM. The inhibition (as a rule, the change of the read-out against control, counted positive when it falls) at 40 µM in data set [2] amounted to 43.3%. Besides, the inhibition in [3] was 77.3%; in data set [13], 93.9%; in data set [16], 97.3%. Also, in data set [4], the bioavailability – broadly, dose-corrected exposure relative to a reference, in per cent – was 0.64%. In addition, the concentration in data set [5] peaked (Cmax) at 11.4 ng/mL. The half-life (in general, how long it takes for the measured level to halve) is 1.36 h in data set [6]; 1.74 h in data set [9]; 1.5 h in [10]; 5.56 min in data set [11]; 4.22 min in data set [12]; 1.9 h in data set [14]. For the same compound, the half-life in data set [15] is 5.99 h; in data set [18], 3.13 min. The values for the AUC at 24 h in data set [7] and in data set [17] were 337 ng·h/mL and 10.8 ng·h/mL, respectively. In data set [19], the clearance (in general, the volume of plasma or blood freed of the substance per unit of time) came to 49.1 mL/min/kg.
As for `CC(C)n1ccc(S(=O)(=O)NC(=O)Nc2c3c(cc4c2CCC4)CCC3)n1` [INZOMELID], the inhibition in [20] stood at 42.7%. Besides, the IC50 in data set [8] was found to be 14 nM.
Take `COc1cc(N)c(Cl)cc1C(=O)NC1CCN(CCCOc2ccc(F)cc2)CC1OC` (centres undefined) [CISAPRIDE]: the inhibition at 40 µM in [2] came to 98.7%.
Turning to `C=C1C(=O)[C@]23[C@H](O)[C@H]1CC[C@H]2[C@]12C=CCC(C)(C)[C@H]1[C@H](O)[C@@]3(OCCC(=O)NCCC)OC2`, the inhibition is 20.3% in data set [3], 47.2% in data set [13] and 60% in data set [16]. Besides, the IC50 in data set [8] was determined as 283 nM.
Turning to `CC(C)(O)c1coc(S(=O)(=O)NC(=O)Nc2c3c(cc4c2CCC4)CCC3)c1`, the inhibition in data set [20] worked out at 80.5%. Also, the outcome in [21] was Active.
Take `C=C1C(=O)[C@]23[C@H](O)[C@H]1CC[C@H]2[C@]12C=CCC(C)(C)[C@H]1[C@H](O)[C@@]3(OCc1nccs1)OC2`: the values for the inhibition in [3], in [13] and in data set [16] were 46.2%, 56.7% and 63.2%, respectively. Further, in [8], the IC50 came out at 1890 nM.
The like results for `C=C1C(=O)[C@]23[C@H](O)[C@H]1CC[C@H]2[C@]12C=CCC(C)(C)[C@H]1[C@H](O)[C@@]3(OCc1ccncc1)OC2` were, in that order, 47.3%, 56%, 77.3% and 100 nM.
Consider `C=C1C(=O)[C@]23[C@H](O)[C@H]1CC[C@H]2[C@]12C=CCC(C)(C)[C@H]1[C@H](O)[C@@]3(OCc1nc(-c3ccccc3)cs1)OC2`, for which the inhibition in [3] is 60.9%; in [13], 79.6%; in [16] it was 93.9%. Moreover, the IC50 in data set [8] is 80.5 nM.
As to `C=C1C(=O)[C@]23[C@H](O)[C@H]1CC[C@H]2[C@]12C=CCC(C)(C)[C@H]1[C@H](O)[C@@]3(OCCCC(=O)O)OC2`, the inhibition in data set [3] was found to be 57.1%; in data set [13], 68.7%; in [16], 83%. In [8], the IC50 came to 81.7 nM.
In the same order, the values of `C=C1C(=O)[C@]23[C@H](O)[C@H]1CC[C@H]2[C@]12C=CCC(C)(C)[C@H]1[C@H](O)[C@@]3(OCCC(=O)NCCOC)OC2` are 18%, 49%, 69.9% and 286 nM.
The like results for `C=C1C(=O)[C@]23[C@H](O)[C@H]1CC[C@H]2[C@]12C=CCC(C)(C)[C@H]1[C@H](O)[C@@]3(OCCC(=O)N(CCC)CCC)OC2` were, in that order, 25.4%, 67.4%, 71.6% and 178 nM.
For the compound `C=C1C(=O)[C@]23[C@H](O)[C@H]1CC[C@H]2[C@]12C=CCC(C)(C)[C@H]1[C@H](O)[C@@]3(OCCC(=O)N1CCOCC1)OC2`, the inhibition in [3] came out at 62.7%; in data set [13], 83.9%; in [16], 95.1%. Also, the 50% inhibitory concentration (IC50) in [8] was 72.2 nM. Also, the selectivity ratio in data set [22] worked out at 30.2.
For the compound `C=C1C(=O)[C@]23[C@H](O)[C@H]1CC[C@H]2[C@]12C=CCC(C)(C)[C@H]1[C@H](O)[C@@]3(OCCC(=O)N1CCCC1)OC2`, the inhibition in data set [3] is 36.4%; in [13] it was 55.9%; in data set [16], 79.1%. Also, the IC50 in data set [8] came to 161 nM.
In the same order, the values of `C=C1C(=O)[C@]23[C@H](O)[C@H]1CC[C@H]2[C@]12C=CCC(C)(C)[C@H]1[C@H](O)[C@@]3(OCCC(=O)N(C)C)OC2` are 56.7%, 78.2%, 89% and 103 nM.
In the same order, the values of `C=C1C(=O)[C@]23[C@H](O)[C@H]1CC[C@H]2[C@]12C=CCC(C)(C)[C@H]1[C@H](O)[C@@]3(OCc1cnco1)OC2` are 50.6%, 83%, 89.5% and 99.3 nM.
The like results for `C=C1C(=O)[C@]23[C@H](O)[C@H]1CC[C@H]2[C@]12C=CCC(C)(C)[C@H]1[C@H](O)[C@@]3(OCC(=O)O)OC2` were, in that order, 12.9%, 25.5%, 55.4% and 406 nM.
Consider `CS(=O)(=O)/C=C/C#N`, for which the IC50 in data set [23] is 100 nM.

Source of the values: ChEMBL document CHEMBL5506055, “Hit-to-Lead Optimization of the Natural Product Oridonin as Novel NLRP3 Inflammasome Inhibitors with Potent Anti-Inflammation Activity” (J Med Chem, 2024).
